Test results from article PMC10216581, “Homogeneous, Synthetic, Non-Saccharide Glycosaminoglycan Mimetics as Potent Inhibitors of Human Cathepsin G” (Biomolecules, 2023).
Several values for one entry are separate records, joined by “and”; a condition that tells them apart may be missing. Identical values can stand only once. Entries after “also recorded” stand apart in the source; their conditions may differ. Like-named read-outs stand apart in the source and are kept apart here.

Assays:
human plasmin = tested on: human plasmin; design: method as in PMID 9790687; conditions: previous studies; cited from earlier work
thrombin = tested on: thrombin; design: method as in PMID 9790687; conditions: previous study; read-out: inhibitory potency; cited from earlier work
Human CatG [1] = target: T1, Human CatG (Homo sapiens, UniProt P08311); experiment: Direct inhibition of CatG, chromogenic substrate (S-7388) hydrolysis assay, IC50 determination; type: biochemical; conditions: 100 mM NaCl
T1 construct: purchased Elastin Products Company (Owensville, MO, USA)
T1 sequence (P08311 21-255): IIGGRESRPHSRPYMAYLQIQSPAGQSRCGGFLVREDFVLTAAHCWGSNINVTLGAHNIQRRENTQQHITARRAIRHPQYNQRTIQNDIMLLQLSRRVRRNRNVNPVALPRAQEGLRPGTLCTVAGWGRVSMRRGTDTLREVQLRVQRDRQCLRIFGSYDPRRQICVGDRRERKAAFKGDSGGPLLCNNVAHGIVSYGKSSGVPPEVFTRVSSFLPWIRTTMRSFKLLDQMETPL
Description: A chromogenic substrate hydrolysis assay was used to determine the direct inhibition of CatG by the NSGMs, as previously reported. To each well of a 96-well microplate containing 88 µL of 20 mM tris buffer, containing 100 mM NaCl, 2.5 mM CaCl2, 0.1% PEG 8000, and 0.05% Tween 80, 4 µL of CatG (final concentration of 60 nM) and 5 µL of H2O or NSGM (final concentration of 0–100 µM) were added. After incubating for a period of 5 min, 3 µL of CatG substrate (S-7388, final concentration of 750 µM) was added, and the residual CatG activity was obtained from the initial rate of increase of absorbance at 405 nm. The relative residual activity of CatG for each of the NSGMs, at the various concentrations, was calculated from the ratio of CatG activity in the presence and absence of NSGMs. The dose dependence curve was plotted using a logistic equation (see below) in Sigmaplot version 12 to obtain the IC50 (potency), Hill slope (HS), and efficacy (ΔY). Here, Y is the ratio of residual CatG activity in the presence of NSGMs to that in their absence, YO and YM are the minimum and maximum values of fractional residual CatG activity, respectively, IC50 is the concentration of the NSGM that inhibits CatG activity by 50%, and HS is the Hill slope. ΔY = YM − YO. Y=YO+YM−YO/1+10^logI0−logIC50HS
Figure 4 Representative IC50 profiles for CatG inhibition by NSGMs. Direct inhibition of human CatG was measured using the chromogenic substrate hydrolysis assay at pH 7.4 and 37 °C. Solid lines represent analysis using the logistic dose–response relationship (Equation (1)) to obtain the IC50, ΔY%, and HS. Errors represent ± 1 S.E.

human plasma = experiment: Prothrombin time (PT) clotting assay; type: biochemical
Description: The impacts of NSGM 25 on activated partial thromboplastin time (aPTT) and the prothrombin time (PT) of human plasma were measured employing a standard one-stage recalcification assay at 37 °C, as previously reported. CaCl2 and thromboplastin-D were used to initiate clotting in aPTT and PT assays, respectively, in the absence and presence of NSGM 25, and the time to clot was recorded accordingly.

Human CatG [2] = target: T1, Human CatG; experiment: Michaelis-Menten kinetics of CatG hydrolysis of chromogenic substrate S-7388 in the presence of NSGM 25; type: biochemical
Description: […] The data were analyzed using the standard Michaelis–Menten equation in Sigmaplot version 12 to determine the KM and VMAX.
Figure 5 Kinetics of inhibition of 60 nM CatG by NSGM 25. Michaelis–Menten kinetics of CatG hydrolysis of chromogenic substrate (S-7388) in the presence of NSGM 25. Experiments were performed at 37 °C in 20 mM tris buffer, pH 7.4. Solid lines represent nonlinear regression analysis of the data using the standard Michaelis-Menten to calculate KM and VMAX.

[3] = 50 nM NSGM 25, substrate S-7388, pH 7.4, 37 °C

Question: Which results are given for `O=c1c(OS(=O)(=O)O)c(-c2ccc(OS(=O)(=O)O)c(OS(=O)(=O)O)c2)oc2cc(OS(=O)(=O)O)cc(OCc3ccc(COc4cc(OS(=O)(=O)O)cc5oc(-c6ccc(OS(=O)(=O)O)c(OS(=O)(=O)O)c6)c(OS(=O)(=O)O)c(=O)c45)cc3)c12` [NSGM 25]?
Answer: IC50 (human plasmin): ~6300 nM; IC50 (thrombin): > 150000 nM; IC50 (Human CatG [1]; pH 7.4, read-out: IC50 (potency)): ~50 nM and 53 nM; HS (Hill slope) (Human CatG [1]; Hill slope of dose-response fit, pH 7.4): 0.7 ± 0.1; IC50 (Human CatG [1]; pH 7.4 tris buffer, 37 °C, 60 nM CatG, 750 µM S-7388, ± 1 S.E., read-out: IC50): 50 ± 10 nM; ΔY (efficacy) (Human CatG [1]; ΔY = YM − YO of dose-response fit, pH 7.4): 95 ± 7%; PT (EC2X) (human plasma; concentration required to double the PT of pooled human plasma): >1000 µM; effect on PT clotting time (human plasma; human plasma, concentration as high as 1 mM): did not impact; also recorded: did not extend; Km (Human CatG [2]; [3]): 2180 ± 270 µM; VMAX (Human CatG [2]; [3]): 52.9 ± 4.1 mAu/min; Km (Human CatG [2]; 100 nM NSGM 25): 1310 ± 60 µM; VMAX (Human CatG [2]; 100 nM NSGM 25): 31.0 ± 0.8 mAu/min; Km (Human CatG [2]; 150 nM NSGM 25): 870 ± 200 µM; VMAX (Human CatG [2]; 150 nM NSGM 25): 21.1 ± 2.1 mAu/min; Km (Human CatG [2]; 200 nM NSGM 25): 800 ± 110 µM; VMAX (Human CatG [2]; 200 nM NSGM 25): 17.0 ± 1.0 mAu/min; Km (Human CatG [2]; 400 nM NSGM 25): 770 ± 300 µM; VMAX (Human CatG [2]; 400 nM NSGM 25): 12 ± 2 mAu/min and 12.4 ± 2.1 mAu/min; mechanism of CatG inhibition (Human CatG [2]; from simultaneous reduction in KM and VMAX): uncompetitive
